Test [1] deals with FaDu cells. Kind of test: Restoring FaDu sensitivity to lapatinib in the presence of HGF or EGF. It counts as cell-based. To be noted: Homo sapiens, antibodies 50 nM, read-out: % of cell viability; for viability at 0.001 µM: lapatinib 0.001 μM; for viability at 0.003 µM: lapatinib 0.003 μM; for viability at 0.01 µM: lapatinib 0.01 μM; for viability at 0.03 µM: lapatinib 0.03 μM; for viability at 0.1 µM: lapatinib 0.1 μM; for viability at 0.3 µM: lapatinib 0.3 μM; for viability at 1 µM: lapatinib 1 μM; for viability at 3 µM: lapatinib 3 μM; for viability at 10 µM: lapatinib 10 μM. Here is the method:
Briefly, 3×10^3 cells/well in 100 μL culture medium may be plated in 96 well plates and incubated overnight at 37° C., 5% CO2. […] At the end of an additional 5 days of cell growth, plates may be equilibrated to room temperature for 30 minutes and 100 μL per well of CellTiter-Glo® reagent (Promega Corp.) may be added. Cell viability can be determined by measuring luminescence.

The subject of test [2] is MKN45 cells. Kind of test: MKN45 apoptosis assay (caspase-3/7 positive cells, […]). The format is cell-based, human. The settings on record: antibody 100 nM, untreated = 100.00. Here is the method:
The gastric cancer cell line MKN45 can be used to assay apoptosis induced by antibodies. Briefly, 3×10^3 cells/well in 80 μL culture medium may be plated in 96 well plates and incubated overnight at 37° C., 5% CO2. CellEvent™ reagent (Life Technologies, Carlsbad, Calif.) may be diluted in cell culture medium and added at 10 μL per well. […] The caspase-3/7 positive cells may be measured in real-time by […]™ Kinetic Imaging System (Essen Bioscience, Ann Arbor, Mich.) with 3 hours intervals at 37° C., 5% CO2 for a total of 120 hours.

Test [3] has as its system HT-29 cells. Kind of test: Restoring HT-29 sensitivity to PLX4032 in the presence of HGF and EGF. The settings on record: Homo sapiens, HT-29, 120 h; read-out: AVG = average % of cell viability. The format is cell-based. Here is the method:
The colon cancer cell line HT-29 has a B-Raf mutation and is sensitive to the B-Raf inhibitor PLX4032. […] Briefly, 3×10^3 cells/well in 100 μL culture medium may be plated in 96 well plates and incubated overnight at 37° C., 5% CO2. […] At the end of an additional 5 days of cell growth, plates may be equilibrated to room temperature for 30 minutes and 100 μL per well of CellTiter-Glo® reagent (Promega Corp.) may be added. Cell viability can be determined by measuring luminescence.

For test [4], the system named is HCC827 cells. Kind of test: Restoring HCC827 sensitivity to erlotinib in the presence of HGF. The settings on record: Homo sapiens, HCC827, 72 h, read-out: AVG = average % of cell viability. Here is the method:
Briefly, 3×10^3 cells/well in 100 μL culture medium may be plated in 96 well plates and incubated overnight at 37° C., 5% CO2. […] Cell viability may be determined by measuring luminescence.

Test [5] relates to ERK phosphorylation. The settings on record: in vitro ERK phosphorylation assay; cited from earlier work.

We go through 5 molecules from US9328173B2, “Multifunctional antibodies binding to EGFR and MET” (Eli Lilly and Company, priority 2013, dated 2016).

Where two headings read alike, the source gives them in different places.

Turning to `CS(=O)(=O)CCNCc1ccc(-c2ccc3ncnc(Nc4ccc(OCc5cccc(F)c5)c(Cl)c4)c3c2)o1` [lapatinib], in test [1] (E = EGF (50 ng/ml)), the viability at 0.001 µM amounted to 109%, the viability at 0.003 µM turned out to be 109%, the viability at 0.01 µM was 78.7% and the viability at 0.03 µM amounted to 69.4%. Moreover, in test [1] (E = EGF (50 ng/ml)), the viability at 0.1 µM was 45.6%, the viability at 0.3 µM is 32.5%, the viability at 1 µM is 26.3% and the viability at 3 µM stood at 19%. Besides, the viability at 10 µM in test [1] (E = EGF (50 ng/ml)) is 19.6%. For the same molecule, in test [1] (H = HGF (50 ng/ml)), the viability at 0.001 µM was 99.5%, the viability at 0.003 µM was determined as 101%, the viability at 0.01 µM is 95.8% and the viability at 0.03 µM is 68.8%. Besides, in test [1] (H = HGF (50 ng/ml)), the viability at 0.1 µM amounted to 45.4%, the viability at 0.3 µM came to 32.5%, the viability at 1 µM amounted to 26.9% and the viability at 3 µM was 18.5%. The viability at 10 µM in test [1] (H = HGF (50 ng/ml)) is 17.1%.

Turning to “anti-MET Ab: parental anti-MET antibody C8-H241 (human IgG4 subtype), described in WO 2010/059654 [reference compound]”, the “AVG = average % increase of cell apoptosis” value in test [2] (24 hr) amounted to 100.35%; in test [2] (48 hr), 222.81%; in test [2] (72 hr), 275.40%; in test [2] (96 hr), 286.63%; in test [2] (120 hr), 353.84%.

In the case of `CCCS(=O)(=O)Nc1ccc(F)c(C(=O)c2c[nH]c3ncc(-c4ccc(Cl)cc4)cc23)c1F` [PLX, PLX4032], in test [3], the viability at 0.00032 µM came out at 101%, the viability at 0.0016 µM came out at 99.9%, the viability at 0.008 µM came out at 97.6% and the viability at 0.04 µM stood at 83.1%. In addition, in test [3], the viability at 0.2 µM stood at 56.7% and the viability at 1 µM was 33.7%.

As to `C#Cc1cccc(Nc2ncnc3cc(OCCOC)c(OCCOC)cc23)c1` [Erlotinib, erlotinib], in test [4], the viability at 1 µM worked out at 18%.

B1: EM1-mAb: bispecific antibody targeting both EGFR and cMET made by controlled Fab Arm Exchange (antibody, chains of the INN, looked up, V domains shown)
VH: QVQLVESGGGVVQPGRSLRLSCAASGFTFSTYGMHWVRQAPGKGLEWVAVIWDDGSYKYYGDSVKGRFTISRDNSKNTLYLQMNSLRAEDTAVYYCARDGITMVRGVMKDYFDYWGQGTLVTVSS
VL: AIQLTQSPSSLSASVGDRVTITCRASQDISSALVWYQQKPGKAPKLLIYDASSLESGVPSRFSGSESGTDFTLTISSLQPEDFATYYCQQFNSYPLTFGGGTKVEIK
VH2: QVQLVQSGAEVKKPGASVKVSCETSGYTFTSYGISWVRQAPGHGLEWMGWISAYNGYTNYAQKLQGRVTMTTDTSTSTAYMELRSLRSDDTAVYYCARDLRGTNYFDYWGQGTLVTVSS
VL2: DIQMTQSPSSVSASVGDRVTITCRASQGISNWLAWFQHKPGKAPKLLIYAASSLLSGVPSRFSGSGSGTDFTLTISSLQPEDFATYYCQQANSFPITFGQGTRLEIK
In the case of B1, the “activity compared to the combination of monovalent control antibodies” value in test [5] is given as “superior activity”.

For orientation: viability means a read-out of living cells in per cent, often relative to untreated cells.
